# Data: patent publication US7838539B2, “Nicotine receptor agonists in stem cell and progenitor cell recruitment” (priority 1999, dated 2010)
# Like-named read-outs stand apart in the source and are kept apart here.
# B1: Del1: Del-1 protein, known to induce angiogenesis; comparison agent in the disc pellet (protein, UniProt O43854 24-480, looked up)
# EGF-like repeat and discoidin …: DICDPNPCENGGICLPGLADGSFSCECPDGFTDPNCSSVVEVASDEEEPTSAGPCTPNPCHNGGTCEISEAYRGDTFIGYVCKCPRGFNGIHCQHNINECEVEPCKNGGICTDLVANYSCECPGEFMGRNCQYKCSGPLGIEGGIISNQQITASSTHRALFGLQKWYPYYARLNKKGLINAWTAAENDRWPWIQINLQRKMRVTGVITQGAKRIGSPEYIKSYKIAYSNDGKTWAMYKVKGTNEDMVFRGNIDNNTPYANSFTPPIKAQYVRLYPQVCRRHCTLRMELLGCELSGCSEPLGMKSGHIQDYQITASSIFRTLNMDMFTWEPRKARLDKQGKVNAWTSGHNDQSQWLQVDLLVPTKVTGIITQGAKDFGHVQFVGSYKLAYSNDGEHWTVYQDEKQRKDKVFQGNFDNDTHRKNVIDPPIYARHIRILPWSWYGRITLRSELLGCTEEE
# Experiments:
# [1] = tested on: fibrovascular growth into the disc (index of angiogenesis); assay: Disc angiogenesis system (DAS); assay type: in vivo, C57BL/6J mice; conditions: for effect on nicotine-induced fibrovascular growth: oral indomethacin 20 mcg/ml or LNNA 6 mg/ml; for angiogenesis in comparison to vehicle: agent in disc pellet: bFGF 20 mcg, Del-1 0.2 M, nicotine 10^-6 M
# From the text: To study whether nicotine induces angiogenesis in vivo, we employed the disc angiogenesis system (DAS) (Kowalski et al. (1992) Exp Mol Pathol 56(1):1-19; Fajardo et al. (1998) Lab Invest 58:718-7244).
# Preparation of the disc The DAS consisted of a disc (11 mm in diameter and 1 mm thickness) made of a polyvinyl alcohol sponge (Kanebo PVA, Rippey Co., Santa Clara, Calif.). Both sides were covered with nitrocellulose cell-impermeable filters (Millipore filters, 0.45 μm in pore diameter, Millipore, SF, Calif.) of the same diameter as the sponge disc, fixed to the sponge using Millipore glue #1 (xx70000.00, Millipore). As a result, cells (and thus vessels) could penetrate or exit only through the rim of the disc (Kowalski et al. (1992) Exp Mol Pathol 56(1):1-19; Fajardo et al. (1998) Lab Invest 58:718-7244).
# In order to study the local effect of nicotine on angiogenesis, nicotine was placed in a pellet which was added directly to the disc. Briefly, a 1.5-mm core (pellet) was cut from the disc center. Both the pellets and discs were sterilized prior to assembly in a laminar flow hood. The pellet was loaded with up to 20 mcl (μl) of the nicotine solution and subsequently air-dried. We placed in the disc pellets with either vehicle (PBS, Sigma, Chemical Co., St Louis, Mo., n=5) or nicotine (10^-6 M, Aldrich Chemical Company, Milwaukee, Wis., n=5) to study the effects of locally administered nicotine. For comparison, in some cases basic fibroblast growth factor (bFGF; 20 mcg) or Del-1 protein (0.2 M) was added to the pellet, rather than nicotine. Both bFGF and Del-1 are known to induce angiogenesis. The pellet was then coated with ethylene-vinyl acetate co-polymer (Elvax, Dupont, Chemcentral Corp., Chicago, Ill.) which would permit slow release of the nicotine from the pellet into the disc. The pellet was then re-inserted into the disc before sealing the disc with the millipore filters.
# To study the systemic effects of nicotine, in some cases the animals were administered nicotine in their drinking water (see below).
# Implantation of the disc The mice were anesthetized with 4% chloralhydrate [intraperitoneal administration (i.p.), 0.1 cc/10 g body weight]. The flanks and posterior surface of the thorax were shaved and cleaned with saturated 70% isopropyl alcohol. A 2-cm incision was made in the skin of the flank contra-lateral to the implantation site. Blunt dissection through the subcutaneous tissue produced a channel into which the saline moistened disc was inserted. The skin was closed with 5.0 silk suture (Kowalski et al. (1992) Exp Mol Pathol 56(1):1-19; Fajardo et al. (1998) Lab Invest 58:718-7244).
# Disc removal and preparation Two weeks after disc implantation, the mice were sacrificed with an overdose of 4% chloral hydrate (i.p.) and cervical dislocation. A careful incision was made next to the skin overlying the implanted disc, and the disc was gently removed from the implantation site. Attached tissue was carefully detached from the disc. After removing the disc, one filter was separated from the disc. Discs were then fixed in 10% formalin and embedded flat in paraffin. Subsequently, 5 μm sections were made in a plane through the center of the disc and parallel to the disc surface.
# Quantitation of results The disc sections were stained with H&E for light microscopy and histomorphometric measurement of radial growth, and stained with toluidine blue for quantitative determination of total area of fibrovascular growth. Using a video microscope and a computer assisted digital image analysis system (NIH Image 1.59b9), the entire area of fibrovascular growth in the toluidine blue stained disc was calculated and expressed in mm^2. As described in a previous study, total fibrovascular growth area is directly proportional to the total area of the disc occupied by blood vessels (Kowalski et al. (1992) Exp Mol Pathol 56(1):1-19; Fajardo et al. (1998) Lab Invest 58:718-7244).
# hematopoietic stem cells = conditions: 100 μg/ml in drinking water, 6 weeks
# Method: (§1) Mice (C57B16j) were given solution containing vehicle (0.4% saccharine in distilled water) or nicotine (100 μg/ml) ad libitum in their drinking water. After 6 weeks, peripheral blood, bone marrow and spleen were harvested. Cell counts were obtained in the blood, spleen and bone marrow, and bone marrow cells were isolated for fluorescent activated cell sorting (FACS). To detect hematopoietic stem cells (HSCs), fluorescently labeled antibodies directed against the following antigens were used: Lineage antigens (CD3,4,5, and 8; B220; Gr1, Mac1 and Ter119), cKit, Sca 1, and Flk2. HSCs were conventionally defined as Lin−, cKit+, Sca1+, and […]. All cells were stained with PI (propidium iodide) to separate live from dead cells.
# [2] = tested on: capillary density in hindlimb muscle
# Method: Mice were anesthetized with 4% chloral hydrate [intraperitoneal administration (i.p.), 0.1 cc/10 g body weight). The medial surface of both hind limbs were shaved and then cleaned with betadine solution. A 1.5-cm longitudinal incision was performed, extending from the knee to the inguinal ligament. Through this incision, the superficial femoral artery was dissected free along its length. After the distal ends of both the external iliac and superficial femoral arteries were ligated with 7.0 (Ethicon), complete excision of the femoral artery was performed. An additional set of mice underwent sham operation. The incisions were then closed with discontinuous stitches of 5.0 silk suture (Ethicon). Ampicillin (1 mg/10 gm body weight) intraperitoneal injection was administered after surgical procedure.
# Tissue Preparation. Three weeks after surgery, mice were euthanized with an overdose of 4% chloral hydrate (i.p) and cervical dislocation, and the adductor and semimembranous muscles were collected for capillary density assessment. Briefly, a longitudinal incision in the medial thigh was made to expose the entire hindlimb muscle. The adductor and semimembranous muscles were removed and immediately frozen in OCT. Subsequently, sections 5 μm were taken from the mid-region of each muscle in a transverse orientation. The sections were air dried and fixed in acetone.
# Capillary Densitometry. Immunohistochemistry was performed using an alkaline phosphatase assay to identify the endothelial cells. An eosin counterstain was used to differentiate myocytes. Capillaries and myocytes were identified and counted using light microscopy (20×). For each section, four different fields were selected and the total number of capillaries and myocytes per field determined. These values were averaged to provide a determination of capillary density for each experimental limb. To ensure that value for capillary density was not overestimated due to muscle atrophy, or underestimated due to interstitial edema, capillary density was expressed as a ratio of capillaries to myocytes present in the same field.
# Daily intramuscular injections of nicotine solution or vehicle were administered (50 μl) for a period of three weeks.
# [3] = tested on: endothelial progenitor cells (EPCs); conditions: nicotine 0.1 g/L drinking water, 3 weeks after ischemia
# From the text: In order to further examine the role of nicotine in induction of angiogenesis, the recruitment of endothelial progenitor cells was studied.
# Parabiotic mouse pairs were created to investigate the mobilization and incorporation of precursors to vessel formation in normal and ischemic conditions using a hind limb ischemia model of angiogenesis (as described above), and the effect of nicotine. The parabiotic partners were selected so that they shared all major histocompatibility antigens, and were therefore free of immunological barriers to cell migration and angiogenesis. Assaying for genetic markers unique to one animal of the pair (e.g., the Y chromosome where the pair is made up of a female mouse and a male mouse) provides for unambiguous cell tracking between the mice. The model is further optimized by the use of a second genetic marker to differential the individuals (e.g., a transgene present in one partner and not the other), thus increasing the sensitivity and the accuracy of the identification of the origin of single cells. […]
# in vivo = conditions: C57B16j, mouse, plasma, oral, 100 μg/ml in drinking water
# Method: as §1
# [4] = highest intramuscular dose (3.2 μg/kg daily, three weeks)
molecule,measurement,setting,value
COc1ccc2c(c1)c(CC(=O)O)c(C)n2C(=O)c1ccc(Cl)cc1 [indomethacin],effect on nicotine-induced fibrovascular growth,[1]; local nicotine in disc,blocked
same,effect on nicotine-induced fibrovascular growth,[1]; systemic nicotine,blocked
"CN1CCC[C@H]1c1cccnc1 [nicotine, S-3-(1-methyl-2-pyrrolidinyl)pyridine]",angiogenesis in comparison to vehicle,[1],increased angiogenesis to the same degree
same,angiogenesis with systemic nicotine compared with locally administered bFGF and Del-1,[1]; systemic nicotine in drinking water,enhanced angiogenesis to a much greater degree
same,angiogenic effect of systemic compared with local nicotine administration,[1]; systemic versus local nicotine,greater than local nicotine administration
same,appearance of mice at the time of sacrifice,hematopoietic stem cells,appeared healthy
same,cellularity of the bone marrow,hematopoietic stem cells,increased
same,cellularity of the spleen,hematopoietic stem cells,increased
same,peripheral white blood cell count,hematopoietic stem cells,elevated
same,hematopoietic stem cells (kit/sca+ cells) in bone marrow,hematopoietic stem cells; FACS,significant increase
same,long term HSCs (self-renewing cells) in bone marrow,hematopoietic stem cells; FACS,equal increases
same,short term HSCs in bone marrow,hematopoietic stem cells; FACS,an increase
same,capillary density in the ischemic limb,"[2]; 0.03 μg/kg intramuscular daily for three weeks, vehicle control 0.35",0.67 capillaries/myocyte
same,"angiogenic effect, dose dependence",[2]; higher intramuscular doses,less angiogenesis is observed
same,angiogenesis in the ischemic limb,[2]; [4],angiogenesis was not increased
same,toxicity at injection site,[2]; [4],"some toxicity was observed, with evidence of interstitial edema and myocyte necrosis"
same,"angiogenic effect, dose dependence",[2]; intermediate intramuscular doses,greatest effect
same,angiogenic effect in non-ischemic hindlimbs,"[2]; intramuscular nicotine in the ischemic limb, untreated non-ischemic limb",no angiogenic effect was detected
same,number of vessels,[3],significant increase
same,percentage of vessels that incorporated EPC,"[3]; saline group 1.6%, P<0.001",7.3%
same,concentration at 6 weeks,in vivo,87 ng/mL
"bFGF: basic fibroblast growth factor, known to induce angiogenesis; comparison agent in the disc pellet",angiogenesis in comparison to vehicle,[1],increased angiogenesis to the same degree
"NC(=NCCC[C@H](N)C(=O)O)N[N+](=O)[O-] [LNNA, L, nitro-arginine]",effect on nicotine-induced fibrovascular growth,[1]; local nicotine in disc,blocked
same,effect on nicotine-induced fibrovascular growth,[1]; systemic nicotine,blocked
B1,angiogenesis in comparison to vehicle,[1],increased angiogenesis to the same degree
